# Like-named read-outs stand apart in the source and are kept apart here. Starred links: 1 amine or outer side, 2 acyl side, 3 side chain; linkers in the order of their positions; H or OH if unused. Positions of bridges follow the written chain, without caps; N, C: chain ends. Non-standard residues stand in square brackets, D forms with d. Residues, ends and D or L forms follow the SMILES beside them. *: point of attachment. NMeF = CN[C@@H](Cc1ccccc1)C(=O)O; NMeGABA = CN(CCCC(=O)[*:2])[*:1]; NMeI = CC[C@H](C)[C@H](NC)C(=O)O; NMeβAla = CN(CCC(=O)[*:2])[*:1]; Aoc(2) = CCCCCC[C@H](N)C(=O)O; NMeL = CN[C@@H](CC(C)C)C(=O)O; NMeS = CN[C@@H](CO)C(=O)O; NMeA = CN[C@@H](C)C(=O)O; Piperidide = C1CCN(*)CC1; dNMeA = CN[C@H](C)C(=O)O; β3hA = C[C@H](N)CC(=O)O; Abu = CC[C@H](N)C(=O)O; Sar = CNCC(=O)O; tBu = CC(C)(C)*
# How the values were obtained:
# [1] = PAMPA (parallel artificial membrane permeability assay); format: in vitro ADME; details: PAMPA
# Method in brief: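 Artificial membrane was 10% (w/v) egg lecithin plus 0.5% (w/v) cholesterol in dodecane on a PVDF filter. A 10 mM DMSO stock was added at 0.5% (v/v) to donor buffer (50 mM MOPSO, pH 6.5, 5.0% glycocholic acid). After 18 h at 37 °C, LC/MS or LC/UV gave donor and acceptor levels for Pe.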
# [2] = Metabolic stability in human hepatic microsome; format: in vitro ADME; details: microsomes
# [3] = membrane permeation rate (Pe), 50 mM MOPSO buffer pH 6.5 with 5.0% glycocholic acid, 37° C., 18 hours, read-out: iPAMPA Pe
# [4] = pH 7.4, human hepatic microsome, NADPH(+), read-out: CL NADPH(+)
smiles,measurement,setting,value
CC(C)C[C@H]1C(=O)N(C)CC(=O)N(C)[C@@H](Cc2ccccc2)C(=O)N[C@@H](COC(C)(C)C)C(=O)N[C@H](C(=O)N2CCCCC2)CC(=O)N(C)CCCC(=O)N[C@@H]([C@@H](C)O)C(=O)N1C [DP-534] ([NMeGABA]T[NMeL][Sar][NMeF]S(tBu)D-Piperidide; lactam N-7),"Papp at 18 hours, 50 µM",[1]; [3],6.3 ×10⁻⁶ cm/s
same,microsomal CLint at 1 uM,[2]; [4],55 µL/min/mg
CC(C)C[C@@H]1NC(=O)[C@@H](C)NC(=O)C[C@@H](C(=O)N2CCCCC2)NC(=O)[C@H](CC(C)C)N(C)C(=O)[C@H](C)N(C)C(=O)[C@H](CC(C)C)N(C)C(=O)[C@H](CC(C)C)N(C)C(=O)[C@H](Cc2ccccc2)N(C)C(=O)[C@H](C)NC(=O)[C@H](Cc2ccccc2)N(C)C(=O)[C@H]([C@@H](C)O)NC1=O [DP-139] ([dA]LT[NMeF]A[NMeF][NMeL][NMeL][NMeA][NMeL]D-Piperidide; lactam N-11),"Papp at 18 hours, 50 µM",[1]; [3],23 ×10⁻⁶ cm/s
same,microsomal CLint at 1 uM,[2]; [4],22 µL/min/mg
CC(C)C[C@H]1C(=O)N(C)[C@@H](C)C(=O)N(C)[C@@H](Cc2ccccc2)C(=O)N[C@@H]([C@@H](C)O)C(=O)N(C)[C@@H](C)C(=O)N(C)[C@@H](Cc2ccccc2)C(=O)N(C)[C@@H](C)C(=O)N[C@H](C(=O)N(C)[C@@H](Cc2ccccc2)C(=O)N[C@@H](C)C(=O)N2CCCCC2)CC(=O)N(C)CCC(=O)N(C)[C@@H](C)C(=O)N[C@@H](C)C(=O)N1C [DP-346] ([NMeβAla][NMeA]A[NMeL][NMeA][NMeF]T[NMeA][NMeF][NMeA]D[NMeF]A-Piperidide; lactam N-11),"Papp at 18 hours, 50 µM",[1]; [3],4 ×10⁻⁶ cm/s
same,microsomal CLint at 1 uM,[2]; [4],7 µL/min/mg
CC(C)C[C@H]1C(=O)N[C@H](C(=O)N2CCCCC2)CC(=O)N(C)CC(=O)N[C@@H]([C@@H](C)O)C(=O)N(C)[C@@H](C)C(=O)N(C)[C@@H](Cc2ccccc2)C(=O)NCC(=O)N(C)[C@@H](Cc2ccccc2)C(=O)N(C)[C@@H](CC(C)C)C(=O)N(C)[C@@H](CC(C)C)C(=O)N1C [DP-175] ([Sar]T[NMeA][NMeF]G[NMeF][NMeL][NMeL][NMeL]D-Piperidide; lactam N-10),"Papp at 18 hours, 50 µM",[1]; [3],48 ×10⁻⁶ cm/s
same,microsomal CLint at 1 uM,[2]; [4],94 µL/min/mg
CC(C)C[C@H]1C(=O)N[C@@H](Cc2ccccc2)C(=O)N[C@H](C(=O)N(C)[C@@H](Cc2ccccc2)C(=O)N[C@@H](C)C(=O)N2CCCCC2)CC(=O)N(C)CCCC(=O)N[C@@H]([C@@H](C)O)C(=O)N(C)CC(=O)N(C)[C@@H](C)C(=O)N[C@@H](C(C)C)C(=O)N(C)[C@@H](Cc2ccccc2)C(=O)N1C [DP-383] ([NMeGABA]T[Sar][NMeA]V[NMeF][NMeL]FD[NMeF]A-Piperidide; lactam N-9),"Papp at 18 hours, 50 µM",[1]; [3],14 ×10⁻⁶ cm/s
same,microsomal CLint at 1 uM,[2]; [4],138 µL/min/mg
CC[C@H](C)[C@H]1C(=O)N(C)[C@@H](C)C(=O)N(C)[C@@H](CC(C)C)C(=O)N[C@@H](COC(C)(C)C)C(=O)N(C)[C@@H](CC(C)C)C(=O)N[C@@H](C)CC(=O)N(C)[C@@H](C)C(=O)N(C)[C@@H](Cc2ccccc2)C(=O)N[C@@H](C)C(=O)N(C)[C@@H](CC(C)C)C(=O)N[C@@H]([C@@H](C)O)C(=O)N1C [DP-816] (cyclo(A[NMeL]T[NMeI][NMeA][NMeL]S(tBu)[NMeL][β3hA][NMeA][NMeF])),"Papp at 18 hours, 50 µM",[1]; [3],32 ×10⁻⁶ cm/s
same,microsomal CLint at 1 uM,[2]; [4],192 µL/min/mg
CC(C)C[C@H]1C(=O)N(C)[C@@H](C)C(=O)N(C)[C@@H](Cc2ccccc2)C(=O)N[C@@H]([C@@H](C)O)C(=O)N(C)[C@@H](C)C(=O)N(C)[C@@H](Cc2ccccc2)C(=O)N(C)[C@@H](C)C(=O)N[C@H](C(=O)N(C)[C@@H](Cc2ccccc2)C(=O)N[C@@H](C)C(=O)N2CCCCC2)CC(=O)N(C)[C@@H](C)C(=O)N[C@@H](C)C(=O)N(C)[C@@H](C)C(=O)N1C [DP-445] ([NMeA]A[NMeA][NMeL][NMeA][NMeF]T[NMeA][NMeF][NMeA]D[NMeF]A-Piperidide; lactam N-11),"Papp at 18 hours, 50 µM",[1]; [3],11 ×10⁻⁶ cm/s
same,microsomal CLint at 1 uM,[2]; [4],14 µL/min/mg
CC[C@H](C)[C@@H]1NC(=O)[C@H](C)N(C)C(=O)[C@H](CC(C)C)N(C)C(=O)CCN(C)C(=O)C[C@@H](C(=O)N(C)[C@@H](Cc2ccccc2)C(=O)N[C@@H](C)C(=O)N2CCCCC2)NC(=O)[C@H](CC(C)C)N(C)C(=O)[C@H](Cc2ccccc2)N(C)C(=O)[C@H](Cc2ccccc2)N(C)C(=O)[C@H](C)N(C)C(=O)[C@H]([C@@H](C)O)NC(=O)[C@H](CC(C)C)N(C)C1=O [DP-281] ([NMeβAla][NMeL][NMeA]I[NMeL]T[NMeA][NMeF][NMeF][NMeL]D[NMeF]A-Piperidide; lactam N-11),"Papp at 18 hours, 50 µM",[1]; pH 6.5,17 ×10⁻⁶ cm/s
same,microsomal CLint at 1 uM,"[2]; human, pH 7.4, CL NADPH(+)",28 µL/min/mg
CC(C)C[C@H]1C(=O)N(C)[C@@H](C)C(=O)N[C@@H]([C@@H](C)O)C(=O)N(C)[C@@H](C)C(=O)N[C@H](C(=O)N(C)[C@@H](Cc2ccccc2)C(=O)N[C@@H](C)C(=O)N2CCCCC2)CC(=O)N(C)[C@H](C)C(=O)N(C)[C@@H](Cc2ccccc2)C(=O)N(C)[C@@H](C)C(=O)N[C@@H](C(C)C)C(=O)N1C [DP-462] ([dNMeA][NMeF][NMeA]V[NMeL][NMeA]T[NMeA]D[NMeF]A-Piperidide; lactam N-9),"Papp at 18 hours, 50 µM",[1]; [3],9.5 ×10⁻⁶ cm/s
same,microsomal CLint at 1 uM,[2]; [4],17 µL/min/mg
CCCCCC[C@@H]1NC(=O)[C@H](CO)N(C)C(=O)[C@H](CC(C)C)N(C)C(=O)[C@H](CC(C)C)N(C)C(=O)[C@H](CC(C)C)N(C)C(=O)[C@@H](C)NC(=O)[C@H](CC)NC(=O)[C@H](CC(C)C)N(C)C(=O)C[C@H](C)NC(=O)[C@H](CC(C)C)N(C)C(=O)CN(C)C1=O [DP-645] (cyclo([Abu][dA][NMeL][NMeL][NMeL][NMeS][Aoc(2)][Sar][NMeL][β3hA][NMeL])),"Papp at 18 hours, 50 µM",[1]; [3],49 ×10⁻⁶ cm/s
same,microsomal CLint at 1 uM,[2]; [4],74 µL/min/mg
CC(C)C[C@H]1C(=O)N(C)[C@@H](C)C(=O)N(C)[C@@H](Cc2ccccc2)C(=O)N[C@@H]([C@@H](C)O)C(=O)N(C)[C@@H](C)C(=O)N(C)[C@@H](Cc2ccccc2)C(=O)N[C@H](C(=O)N(C)[C@@H](Cc2ccccc2)C(=O)N[C@@H](C)C(=O)N2CCCCC2)CC(=O)N(C)[C@@H](C)C(=O)N(C)[C@@H](C)C(=O)N(C)[C@@H](CC(C)C)C(=O)N[C@@H](C)C(=O)N1C [DP-344] ([NMeA][NMeA][NMeL]A[NMeL][NMeA][NMeF]T[NMeA][NMeF]D[NMeF]A-Piperidide; lactam N-11),"Papp at 18 hours, 50 µM",[1]; [3],22 ×10⁻⁶ cm/s
same,microsomal CLint at 1 uM,[2]; [4],30 µL/min/mg
CC(C)C[C@H]1C(=O)N[C@@H](C(C)C)C(=O)N[C@H](C(=O)N(C)[C@@H](Cc2ccccc2)C(=O)N(C)[C@@H](Cc2ccccc2)C(=O)N[C@@H](C)C(=O)N2CCCCC2)CC(=O)N(C)CC(=O)N(C)[C@@H](CC(C)C)C(=O)N(C)[C@@H](Cc2ccccc2)C(=O)N[C@@H]([C@@H](C)O)C(=O)N(C)[C@@H](C)C(=O)N(C)CC(=O)N1C [DP-407] ([Sar][NMeL][NMeF]T[NMeA][Sar][NMeL]VD[NMeF][NMeF]A-Piperidide; lactam N-9),"Papp at 18 hours, 50 µM",[1]; [3],38 ×10⁻⁶ cm/s
same,microsomal CLint at 1 uM,[2]; [4],29 µL/min/mg
CC(C)C[C@H]1C(=O)N[C@@H]([C@@H](C)O)C(=O)N(C)CC(=O)N(C)[C@@H](Cc2ccccc2)C(=O)N(C)[C@@H](CC(C)C)C(=O)N(C)[C@@H](Cc2ccccc2)C(=O)N(C)[C@@H](CC(C)C)C(=O)N[C@@H](C)C(=O)N[C@H](C(=O)N2CCCCC2)CC(=O)N(C)CCC(=O)N(C)[C@@H](C)C(=O)N1C [DP-471] ([NMeβAla][NMeA][NMeL]T[Sar][NMeF][NMeL][NMeF][NMeL]AD-Piperidide; lactam N-11),"Papp at 18 hours, 50 µM",[1]; [3],21 ×10⁻⁶ cm/s
same,microsomal CLint at 1 uM,[2]; [4],30 µL/min/mg
